Measured values taken from US12180207B2 (ARRAY BIOPHARMA INC., priority 2018, dated 2024).

Key:
[1] = target: recombinant human FGFR2 cytoplasmic domain (amino acids 403-822) (Homo sapiens (Human), UniProt P21802); test: FGFR2 enzyme activity assay (LanthaScreen TR-FRET); format: biochemical; settings: 15 μM ATP, 20 min incubation at 22° C., average of multiple determinations if made, read-out: FGFR2 Enz FRET IC50
Summary of the method: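 His-tagged FGFR2 cytoplasmic domain ([…]) with 100 nM Alexa Fluor 647-poly-GT peptide and 15 μM ATP in HEPES/MgCl2/Triton buffer, pH 7.5, 2% DMSO, 20 min at 22 °C. EDTA-quenched, Eu-PY20 antibody added, TR-FRET read after 60 min.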

[2] = target: phosphorylated FGFR3 (SEQ ID NO: 5, amino acids 449 to 759) (Homo sapiens (Human), UniProt P22607); test: FGFR enzyme binding assay (HTRF tracer displacement), FGFR3; settings: 5 nM phosphorylated FGFR3, average of multiple determinations if made
Summary of the method: (§1)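 Compounds were tested for displacement of a tracer from human FGFR kinase in a time-resolved FRET binding format. After 60 minutes at 22° C, signal was read at two wavelengths and converted to percent of control, normalised between untreated wells and 1 μM reference inhibitor.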

[3] = target: dephosphorylated FGFR1 (SEQ ID NO: 1, amino acids 458 to 765) (Homo sapiens (Human), UniProt P11362); test: FGFR enzyme binding assay (HTRF tracer displacement), FGFR1; settings: 5 nM dephosphorylated FGFR1, average of multiple determinations if made
Summary of the method: as §1

[4] = target: FGFR1 (SEQ ID NO: 1, amino acids 458-765) (Homo sapiens (Human), UniProt P11362); test: LC/MS FGFR1 kobs assay (covalent protein modification); format: binding; settings: 500 nM FGFR1, 3 μM compound
Procedure: The LC/MS FGFR1 and FGFR3 kobs assays were conducted as follows. […] At each time point, the reaction was quenched with 20 μL of 0.4% formic acid. The extent of protein modification by each compound was determined by LC/MS on an Agilent Technologies 6520 Q-TOF LC/MS. Protein signals were then automatically deconvoluted using Agilent Masshunter software. Deconvoluted mass signals were exported to Tibco Spotfire data analysis program for further processing and normalization.
Data analysis included five steps. First, the signals for the “DMSO Controls” were analyzed to determine the percent of signal associated with unmodified FGFR1 or FGFR3 at each time point. Next, the percent of the signal associated with the covalent modification was determined. Third, the average nonmodified “DMSO Control” signal was used to normalize the modified protein signals at each time point. The percent of unmodified protein was fit to an exponential decay model where A0 is the Percent Unmodified at the start of the reaction, and kobs is the observed rate constant over the time period.

[5] = target: recombinant human FGFR3 (amino acids R397-T806) (Homo sapiens (Human), UniProt P22607); test: FGFR3 enzyme activity assay (LanthaScreen TR-FRET); format: biochemical; settings: 25 μM ATP, 10 min incubation at 22° C., average of multiple determinations if made, read-out: FGFR3 Enz FRET IC50
Summary of the method: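 GST-HIS6-tagged human FGFR3 (R397-T806) was reacted with 100 nM Alexa Fluor 647-Poly-GT substrate and 25 μM ATP plus compound in HEPES/MgCl2/Triton buffer, pH 7.5, 2% DMSO, for 10 min at 22 °C.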

[6] = target: FGFR3 (SEQ ID NO: 5, amino acids 449-759) (Homo sapiens (Human), UniProt P22607); test: LC/MS FGFR3 kobs assay (covalent protein modification); format: binding; settings: 500 nM FGFR3, 3 μM compound
Summary of the method: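 Covalent modification of FGFR1 (aa 458-765) or FGFR3 (aa 449-759) followed over time; reactions quenched with 0.4% formic acid and analysed by Q-TOF LC/MS after deconvolution. Percent unmodified protein, normalized to DMSO controls, fit to exponential decay to give kobs; averaged where repeated.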

[7] = target: recombinant human FGFR1 catalytic domain (amino acids 308-731) (Homo sapiens (Human), UniProt P11362); test: FGFR1 enzyme activity assay (LanthaScreen TR-FRET); format: biochemical; settings: 20 min incubation at 22° C., average of multiple determinations if made, read-out: FGFR1 Enz FRET IC50
Summary of the method: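 His-tagged FGFR1 kinase domain with 100 nM Alexa Fluor 647-poly-GT peptide and ATP in pH 7.5 HEPES/MgCl2 buffer with 2% DMSO, 20 min at 22 °C. Quenched with EDTA plus 2 nM Eu-PY20 antibody and read after 60 min. IC50 comes from a 4-parameter fit of percent of control.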

Sequence of recombinant human FGFR3 (amino acids R397-T806) (P22607 397-806): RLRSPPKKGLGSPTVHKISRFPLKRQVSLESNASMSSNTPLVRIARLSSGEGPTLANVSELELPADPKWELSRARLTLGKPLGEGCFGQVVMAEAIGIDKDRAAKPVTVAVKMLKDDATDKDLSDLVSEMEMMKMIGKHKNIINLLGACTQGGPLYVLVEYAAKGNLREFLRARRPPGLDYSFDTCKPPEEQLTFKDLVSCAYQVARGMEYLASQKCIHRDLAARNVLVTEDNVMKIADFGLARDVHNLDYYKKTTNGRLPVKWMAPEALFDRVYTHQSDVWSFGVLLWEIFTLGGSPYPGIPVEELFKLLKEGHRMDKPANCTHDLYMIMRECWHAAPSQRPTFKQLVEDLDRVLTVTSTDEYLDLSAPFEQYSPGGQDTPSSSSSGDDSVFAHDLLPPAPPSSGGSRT
Sequence of recombinant human FGFR2 cytoplasmic domain (amino acids 403-822) (P21802 402-821): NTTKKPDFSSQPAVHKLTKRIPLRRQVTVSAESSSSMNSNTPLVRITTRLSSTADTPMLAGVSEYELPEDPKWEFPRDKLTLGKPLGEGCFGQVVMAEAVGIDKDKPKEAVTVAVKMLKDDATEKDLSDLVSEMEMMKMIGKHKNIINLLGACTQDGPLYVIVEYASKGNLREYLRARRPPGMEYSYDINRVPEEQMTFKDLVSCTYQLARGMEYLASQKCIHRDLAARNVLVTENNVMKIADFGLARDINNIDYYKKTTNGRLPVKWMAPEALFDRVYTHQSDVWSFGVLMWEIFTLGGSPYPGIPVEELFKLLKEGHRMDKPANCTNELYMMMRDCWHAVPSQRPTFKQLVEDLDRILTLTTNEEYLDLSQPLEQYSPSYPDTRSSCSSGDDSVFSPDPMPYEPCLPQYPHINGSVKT
Sequence of recombinant human FGFR1 catalytic domain (amino acids 308-731) (P11362 other isoform, or with tags, fused parts or gaps): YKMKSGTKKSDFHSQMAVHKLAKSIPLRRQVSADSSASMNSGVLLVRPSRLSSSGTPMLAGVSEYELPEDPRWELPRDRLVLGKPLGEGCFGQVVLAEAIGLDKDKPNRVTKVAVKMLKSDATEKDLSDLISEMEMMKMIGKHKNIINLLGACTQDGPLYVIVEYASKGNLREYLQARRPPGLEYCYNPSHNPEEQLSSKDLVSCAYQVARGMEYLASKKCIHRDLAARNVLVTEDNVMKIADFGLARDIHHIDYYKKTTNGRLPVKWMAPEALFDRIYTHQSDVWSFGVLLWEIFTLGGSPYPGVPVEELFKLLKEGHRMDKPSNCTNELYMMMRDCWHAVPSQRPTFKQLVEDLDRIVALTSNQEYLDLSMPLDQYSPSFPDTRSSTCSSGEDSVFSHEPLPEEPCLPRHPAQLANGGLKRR
Sequence of dephosphorylated FGFR1 (SEQ ID NO: 1, amino acids 458 to 765) (P11362 458-765): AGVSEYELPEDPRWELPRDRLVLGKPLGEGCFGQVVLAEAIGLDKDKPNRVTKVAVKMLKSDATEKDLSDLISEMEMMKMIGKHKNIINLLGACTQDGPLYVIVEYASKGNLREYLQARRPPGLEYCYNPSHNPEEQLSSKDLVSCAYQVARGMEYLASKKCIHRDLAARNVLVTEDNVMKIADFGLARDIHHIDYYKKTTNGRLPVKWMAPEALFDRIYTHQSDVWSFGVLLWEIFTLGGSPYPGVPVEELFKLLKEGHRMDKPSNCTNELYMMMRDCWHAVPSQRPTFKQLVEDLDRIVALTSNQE
Sequence of FGFR1 (SEQ ID NO: 1, amino acids 458-765) (P11362 458-765): as above
Sequence of FGFR3 (SEQ ID NO: 5, amino acids 449-759) (P22607 449-759): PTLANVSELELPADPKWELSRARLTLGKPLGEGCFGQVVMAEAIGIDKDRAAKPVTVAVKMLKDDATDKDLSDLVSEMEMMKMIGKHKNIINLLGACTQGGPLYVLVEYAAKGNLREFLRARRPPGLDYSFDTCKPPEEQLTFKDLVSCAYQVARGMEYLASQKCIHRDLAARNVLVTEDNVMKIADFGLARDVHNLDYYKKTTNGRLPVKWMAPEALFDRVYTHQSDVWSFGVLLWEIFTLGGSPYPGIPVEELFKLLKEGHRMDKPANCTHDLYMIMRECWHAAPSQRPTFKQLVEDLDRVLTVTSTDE
Sequence of phosphorylated FGFR3 (SEQ ID NO: 5, amino acids 449 to 759) (P22607 449-759): as above

Row | IC50 [1] [nM] | IC50 [2] [nM] | IC50 [3] [nM] | FGFR1 Enz kobs [4] [min⁻¹] | IC50 [5] [nM] | FGFR3 Enz kobs [6] [min⁻¹] | IC50 [7] [nM] | SMILES
1 | 18 | 223 | 800 | 0.00005 | 15 | 0.0002 | 62 | C=CC(=O)NC1CCN(C(=O)c2ccc(-c3cc(OC)c4c(C#N)cnn4c3)cc2)CC1 [Example 165, N-(1-(4-(3-cyano-4-methoxypyrazolo [1,5-a]pyridin-6-yl)benzoyl)piperidin-4-yl)acrylamide]
2 | 14 | 4 | 45 | 0.00076 | 4 | 0.00444 | 4 | C=CC(=O)N1CCN(C(=O)N2CCC(n3cc(-c4cc(OC)c5c(C#N)cnn5c4)cn3)CC2)CC1 [Example 2, 6-(1-(1-(4-acryloylpiperazine-1-carbonyl)piperidin-4-yl)-1H-pyrazol-4-yl)-4-methoxypyrazolo[1,5-a]pyridine-3-carbonitrile]
3 | 7 | 25 | 214 | 0.00051 | 6 | 0.0015 | 34 | C=CC(=O)N1CC[C@H](C(=O)N2CC[C@@H](n3cc(-c4cc(OC)c5c(C#N)cnn5c4)cn3)C2)C1 [Example 57, 6-(1-((R)-1-((S)-1-acryloylpyrrolidine-3-carbonyl)pyrrolidin-3-yl)-1H-pyrazol-4-yl)-4-methoxypyrazolo[1,5-a]pyridine-3-carbonitrile]
4 | 11 | 5 | 47 | 0.00047 | 7 | 0.00287 | 25 | C=CC(=O)N1C[C@H]2C[C@@H]1CN2C(=O)N1CCC(n2cc(-c3cc(OC)c4c(C#N)cnn4c3)cn2)CC1 [Example 5, 6-(1-(1-((1R,4R)-5-acryloyl-2,5-diazabicyclo[2.2.1]heptane-2-carbonyl)piperidin-4-yl)-1H-pyrazol-4-yl)-4-methoxypyrazolo[1,5-a]pyridine-3-carbonitrile]
5 | 13 | 44 | 191 | 0.00017 | 21 | 0.00184 | 63 | C=CC(=O)N1CCN(c2cccc(-n3cc(-c4cc(OC)c5c(C#N)cnn5c4)cn3)c2)CC1 [Example 27, 6-(1-(3-(4-acryloylpiperazin-1-yl)phenyl)-1H-pyrazol-4-yl)-4-methoxypyrazolo[1,5-a]pyridine-3-carbonitrile]
6 | 3 | 25 | 109 | 0.00071 | 7 | 0.00114 | 11 | C=CC(=O)N1CCC2(CC1)CC(C(=O)N1CCC(n3cc(-c4cc(OC)c5c(C#N)cnn5c4)cn3)CC1)C2 [Example 48, 6-(1-(1-(7-acryloyl-7-azaspiro[3.5]nonane-2-carbonyl)piperidin-4-yl)-1H-pyrazol-4-yl)-4-methoxypyrazolo[1,5-a]pyridine-3-carbonitrile]
7 | 4 | 6 | 31 | 0.00054 | 2 | 0.00124 | 20 | C=CC(=O)N1CCC[C@H](C(=O)N2CCC(n3cc(-c4cc(OC)c5c(C#N)cnn5c4)cn3)CC2)C1 [Example 16, (S)-6-(1-(1-(1-acryloylpiperidine-3-carbonyl)piperidin-4-yl)-1H-pyrazol-4-yl)-4-methoxypyrazolo[1,5-a]pyridine-3-carbonitrile]
8 | 7 | 22 | 174 | 0.00024 | 7 | 0.00111 | 26 | C=CC(=O)N[C@H]1C[C@@H](C(=O)N2CC(n3cc(-c4cc(OC)c5c(C#N)cnn5c4)cn3)C2)C1 [Example 80, N-((1s,3s)-3-(3-(4-(3-cyano-4-methoxypyrazolo[1,5-a]pyridin-6-yl)-1H-pyrazol-1-yl)azetidine-1-carbonyl)cyclobutyl)acryl-amide]
